Results taken from article PMC10254235, “Design, Synthesis, and Anti-Cervical Cancer and Reversal of Tumor Multidrug Resistance Activity of Novel Nitrogen-Containing Heterocyclic Chalcone Derivatives” (Molecules, 2023).
Read-outs that look alike come from different tables or passages of the source.

Key:
Format in all cases: cell-based, human
HeLa cells [1] = assay: MTT antiproliferative assay, HeLa cells; conditions: Homo sapiens, 48 h
Description: (§1) HeLa and SiHa cell lines were obtained from the Procell Life Science Technology Co., Ltd. (Wuhan, China); H8 cell line was obtained from the Shanghai HonSun Biological Technology Co., Ltd. (Shanghai, China); HUVEC cell line was obtained from the Saibaikang (Shanghai) Biotechnology Co., Ltd. (Shanghai, China); HeLa/DDP cell line was obtained from the Guangzhou Jenniobio Biotechnology Co., Ltd. (Guangzhou, China). HeLa, SiHa, H8, and HeLa/DDP cells were cultured in DMEM medium (HyClone). The VEGF of 50 ng/mL was used as the promoter of the VEGFR-2 receptor on HUVEC cell membrane surfaces, and their inhibitory effects on VEGFR-2 were determined. All the mediums were supplemented with 10% FBS (HyClone, GE Healthcare, Australia). Cells were maintained at subconfluency at 37 °C in humidified air containing 5% CO2. The cells were monitored daily and maintained at 80% cell density. All compounds tested were dissolved in DMSO and then diluted by the culture medium before the treatment of cultured cells. Identification reports are available for all types of cell lines involved in this study.
(§2) The cytotoxicity of the target compounds were measured in vitro using the MTT assay. Cells grown in the logarithmic phase were counted and seeded in 96-well cell culture plates (5 × 10^3 cells per well) for 24 h to allow attachment of cells to the wall of the plate. […] Next, 20 μL of 5 mg.mL^−1 MTT solution was added to each well and cultured for 4 h. The old solution was discarded, replaced with 150 μL DMSO solution per well, and shaken for 10 min. The OD value was measured under 490 nm, and the inhibition rate was calculated. The nonlinear regression fitting of the cell growth rate was carried out using SPSS 23.0 software, and the IC50 of the compound was calculated. […] There were 6 compound holes in each group, and the experimental results were presented as the average of 3 experiments. A complete medium containing only cells was used as the blank control, whereas a complete medium without cells was the negative control group. Cisplatin and sorafenib were utilized as the positive control group, and the target compound was the experimental intervention group.

H8 cells = assay: MTT cytotoxicity assay, normal cervical epithelial H8 cells; conditions: Homo sapiens, 48 h, mean ± SD
Description: as §1, §2

HeLa/DDP cells = assay: MTT assay, cisplatin-resistant HeLa/DDP cells
Description: The cytotoxicity of the target compounds were measured in vitro using the MTT assay. Cells grown in the logarithmic phase were counted and seeded in 96-well cell culture plates (5 × 10^3 cells per well) for 24 h to allow attachment of cells to the wall of the plate. […] Next, 20 μL of 5 mg.mL^−1 MTT solution was added to each well and cultured for 4 h. The old solution was discarded, replaced with 150 μL DMSO solution per well, and shaken for 10 min. The OD value was measured under 490 nm, and the inhibition rate was calculated. The nonlinear regression fitting of the cell growth rate was carried out using SPSS 23.0 software, and the IC50 of the compound was calculated. […] A complete medium containing only cells was used as the blank control, whereas a complete medium without cells was the negative control group.

HeLa cells [2] = assay: Apoptosis analysis, Annexin V-FITC/PI flow cytometry; conditions: 24 h
Description: After incubation, cells were harvested and incubated using […] of Annexin-V/FITC (BD, America) in binding buffer (10 mM HEPES, 140 mM NaCl, and 2.5 mM CaCl2 at pH 7.4) at room temperature for 15 min. The PI solution was then added to the medium for another 10 min incubation. Almost 10,000 events were collected for each sample and analyzed using flow cytometry (BD, LSRFortessa, New York, NY, USA). The procedure for the remaining Western blot was the same as in Section 3.3.3.

p-VEGFR-2 = assay: Western blot, VEGFR-2 phosphorylation in HUVEC cells; conditions: 24 h, 6f 2, 4, 6 μM, sorafenib 4 μM, versus blank group, p < 0.05
p-VEGFR-2 (Y1175) = assay: Western blot, p-VEGFR-2 in HeLa cells; conditions: HeLa, 2, 4 and 6 μM, 24 h
Description: (§3) Next, the protein concentrations were determined using a BCA Protein Assay Kit (Solarbio, China). An equal amount of the proteins (12 μg) were separated using 8–12% sodium dodecyl sulfate–polyacrylamide gel electrophoresis (SDS-PAGE) and transferred to nitrocellulose membranes (Amersham Biosciences, Little Chalfont, Buckinghamshire, UK). Then, the membranes were blocked with 5% nonfat dried milk in TBS containing 1% Tween-20 for 2 h at room temperature and were incubated overnight with specific primary antibodies (CST, Boston, MA, USA) at 4 °C. After three washes in TBST, the membranes were incubated with the appropriate HRP-conjugated secondary antibodies at room temperature for 2 h. The blots were developed using enhanced chemiluminescence (Biosharp, Shanghai, China) and were detected using a PE 0723 imager (ProteinSimple, Silicon Valley, CA, USA). Each experiment was performed at least in triplicate and analyzed using Image J software (V1.8.0.112). […]

p-PI3K (Tyr458) = assay: Western blot, p-PI3K in HeLa cells; conditions: HeLa, 2, 4 and 6 μM, 24 h
Description: as §3

Bax = assay: Western blot, Bax in HeLa cells; conditions: HeLa, 2, 4 and 6 μM, 24 h, versus control, p < 0.05
Description: as §3
(§4) After incubation, cells were harvested and incubated using […] of Annexin-V/FITC (BD, America) in binding buffer (10 mM HEPES, 140 mM NaCl, and 2.5 mM CaCl2 at pH 7.4) at room temperature for 15 min. […] Almost 10,000 events were collected for each sample and analyzed using flow cytometry (BD, LSRFortessa, New York, NY, USA). […]

Bcl-2 = assay: Western blot, Bcl-2 in HeLa cells; conditions: HeLa, 2, 4 and 6 μM, 24 h, versus control, p < 0.05
Description: as §3, §4

P-gp = assay: Western blot, P-gp expression in HeLa/DDP cells; conditions: 0.25, 0.5 and 1 μM, p > 0.05
Description: as §3
To reduce the adverse reactions caused by the fixation of drug resistance reversal agents, the concentration that reduces the proliferation rate of tumor cells by less than 10% was selected. Therefore, the inhibitory activity of compound 6f on HeLa/DDP cells was determined in the concentration ranges of 0.25, 0.5, and 1 μM combined with cisplatin. […]

Compound `COc1cc(O)c(C(=O)/C=C/c2ccc(CN3CCC(C)CC3)cc2)cc1CN1CCC(O)CC1` [6f, (E)-1-(2-hydroxy-5-((4-hydroxypiperidin-1-yl)methyl)-4-methoxyphenyl)-3-(4-((4-methylpiperidin-1-yl)methyl)phenyl)prop-2-en-1-one] has an IC50 (HeLa cells [1]; MTT, mean ± SD, read-out: 48h IC50 HeLa) of 6.52 ± 0.42 µM, an IC50 (HeLa cells [1]; single agent, read-out: 48h IC50 HeLa (Table 4)) of 6.52 ± 0.42 µM and an IC50 (H8 cells) of 30.1 ± 2.51 µM. The “inhibitory rate on HeLa/DDP cell line” value (HeLa/DDP cells; 6f alone at 0.25, 0.5 and 1 μM) was “less than 10%”, the “RI (resistance index)” value (HeLa/DDP cells; HeLa/DDP versus HeLa, single agent) was 1.19 and the IC50 (HeLa/DDP cells; Homo sapiens, cisplatin-resistant HeLa/DDP cells, single agent, 48 h, read-out: 48h IC50 HeLa/DDP) was 7.74 ± 0.36 µM. The proapoptotic rate (HeLa cells [2]; 2 μM) was 13.4%, the proapoptotic rate (HeLa cells [2]; 4 μM) was 20.7% and the proapoptotic rate (HeLa cells [2]; 6 μM) was 34.6%. The “phosphorylation of VEGFR-2 in HUVEC cells (Western blot)” value (p-VEGFR-2) was “significantly inhibited the phosphorylation of VEGFR-2”, the “p-VEGFR-2 (Y1175) in HeLa cells (Western blot)” value (p-VEGFR-2 (Y1175)) was “effective downregulation” and the “p-PI3K (Tyr458) in HeLa cells (Western blot)” value (p-PI3K (Tyr458)) was “effective downregulation”. The “expression of Bax (Western blot)” value (Bax) was “significantly upregulated the expression of Bax”, the “expression of Bcl-2 (Western blot)” value (Bcl-2) was “significantly downregulating the expression of Bcl-2” and the “P-gp expression in HeLa/DDP cells (Western blot)” value (P-gp) was “did not exhibit a significant variance in P-gp expression”.
